Data on nine compounds can be found in patent US9108969B2, “Substituted tricyclic acid derivatives as S1P1 receptor agonists useful in the treatment of autoimmune and inflammatory disorders” (Arena Pharmaceuticals, Inc., priority 2008, dated 2015).

In data set [1] the test system is peripheral blood lymphocyte (PBL) count. The experiment in a line: Mouse peripheral lymphocyte lowering (PLL) assay. In kind it is in vivo, Male BALB/c mice. As to conditions: oral dose, 5 hours post-dose, FIG. 11. How it is done: Animals: Male BALB/c mice (Charles River Laboratories, Wilmington, Mass.) were housed four per cage and maintained in a humidity-controlled (40 to 60%) and temperature-controlled (68 to 72° F.) facility on a 12 h:12 h light/dark cycle (lights on at 6:30 am) with free access to food (Harlan Teklad, Orange, Calif., Rodent Diet 8604) and water. Mice were allowed one week of habituation to the animal facility before testing.
PLL Assay: Mice were given an oral dose of Compound 2 or dosing vehicle (0.5% methylcellulose) in a total volume of 10 mL/kg. Peripheral blood samples were collected at 5 hours post-dose. The mice were anesthetized with isoflurane and blood was collected via cardiac puncture. A complete cell count (CBC), including lymphocyte count, was obtained using a CELL-DYN® 3700 (Abbott Laboratories, Abbott Park, Ill.) instrument. Results are presented in FIG. 11, in which peripheral blood lymphocyte (PBL) count is shown for the 5 hour group.

In the next data set the target is T1, human S1P1 receptor (Homo sapiens, UniProt P21453).
T1 construct: expressed in transfected cells; host or cells: CHO-K1 (ATCC CCL-61), stably transfected
The experiment in a line: HTRF assay for direct cAMP measurement (S1P1 agonism). In kind it is cell-based. Particulars: recombinant CHO-K1 cells stably transfected with S1P1; decrease of cAMP. The source says:
Compounds were screened for agonists of the S1P1 receptor (e.g., human S1P1 receptor) using the HTRF® assay for direct cAMP measurement (Gabriel et al., Assay and Drug Development Technologies, 1:291-303, 2003) and recombinant CHO-K1 cells stably transfected with S1P1. CHO-K1 cells were obtained from ATCC® (Manassas, Va.; Catalog #CCL-61). An agonist of the S1P1 receptor was detected in the HTRF® assay for direct cAMP measurement as a compound which decreased cAMP concentration. HTRF® assay also was used to determine EC50 values for S1P1 receptor agonists.
Principle of the Assay:HTRF® assay kit was purchased from Cisbio-US, Inc. (Bedford, Mass.; Catalog #62AM4PEC). The HTRF® assay supported by the kit is a competitive immunoassay between endogenous cAMP produced by the CHO-K 1 cells and tracer cAMP labeled with the dye d2. The tracer binding is visualized by a monoclonal anti-cAMP antibody labeled with Cryptate. The specific signal (i.e., fluorescence resonance energy transfer, FRET) is inversely proportional to the concentration of unlabeled cAMP in the standard or sample.
Standard Curve:The fluorescence ratio (665 nm/620 nm) of the standards (0.17 to 712 nM cAMP) included in the assay was calculated and used to generate a cAMP standard curve according to the kit manufacturer's instructions. The fluorescence ratio of the samples (test compound or compound buffer) was calculated and used to deduce respective cAMP concentrations by reference to the cAMP standard curve.
Setup of the Assay: The HTRF® assay was carried out using a two-step protocol essentially according to the kit manufacturer's instructions, in 20 μL total volume per well in 384-well plate format (ProxiPlates; PerkinElmer, Fremont, Calif.; catalog #6008280). To each of the experimental wells was transferred 1500 recombinant CHO-K1 cells in 5 μL phosphate buffered saline containing calcium chloride and magnesium chloride (PBS+; Invitrogen, Carlsbad, Calif.; catalog #14040) supplemented with IBMX (250 μM) and rolipram (20 μM) (phosphodiesterase inhibitors; Sigma-Aldrich, St. Louis, Mo.; catalog #15879 and catalog #R6520, respectively), followed by test compound in 5 μL compound buffer (PBS+ supplemented with […] (water-soluble forskolin derivative; SignaGen Laboratories, Gaithersburg, Md.; catalog #PKI-NKH477-010)) or 5 μL compound buffer. The plate was then incubated at room temperature for 1 h. To each well was then added 5 μL cAMP-d2 conjugate in lysis buffer and 5 μL Cryptate conjugate in lysis buffer according to the kit manufacturer's instructions. The plate was then further incubated at room temperature for 1 hour, after which the assay plate was read.
Assay Readout: HTRF® readout was accomplished using a PHERAstar (BMG LABTECH Inc., Durham, N.C.) or EnVision™ (PerkinElmer, Fremont Calif.) microplate reader.

In data set [2] the test system is ovariectomy-induced osteoporosis. As to conditions: mice; cited from earlier work.
In another data set the test system is peripheral lymphocytes. As to conditions: Hale et al. 2004; cited from earlier work.
Data set [3] concerns spared nerve injury model. Particulars: cited from earlier work.
Data set [4] relates to experimental autoimmune uveoretinitis. Particulars: short-term high dose; cited from earlier work.
Another data set has as its system multiple sclerosis. As to conditions: patients with multiple sclerosis, Phase II; cited from earlier work.
Data set [5] relates to experimental autoimmune myasthenia gravis (EAMG). Particulars: prophylactic oral administration, 1 mg/kg, three times a week, C57BL/6 mice; cited from earlier work.
Data set [6] relates to VEGF-induced vascular permeability. Particulars: mice, oral administration; cited from earlier work.
The conditions of data set [7]: attributed to agonism of the S1P3 receptor; cited from earlier work.
Data set [8] deals with contact hypersensitivity (CHS). Particulars: murine; cited from earlier work.
Data set [9] has as its system peripheral blood lymphocyte (PBL) count. Nature of the data set: Rat peripheral lymphocyte lowering (PLL) assay. In kind it is in vivo, Male Sprague-Dawley rats. Particulars: 1 mg/kg intravenous dose, 5 h post-dose, FIG. 12 and 13. How it is done: Animals: Male Sprague-Dawley rats (Charles River Laboratories, Hollister, Calif.) were housed and maintained in humidity (40 to 60%) and temperature (68 to 72° F.) controlled facility on a 12 h:12 h light/dark cycle (lights on at 6:30 am) with free access to food (Harlan Teklad, Orange, Calif., Rodent Diet 8604) and water. Rats were allowed (approximately) one week of habituation to the animal facility before testing.
PLL Assay: Rats were given a 1 mg/kg intravenous dose of the first enantiomer isolated after resolution of compound 12 by HPLC (retention time: 15 min per the conditions reported in Example 1.3), or dosing vehicle (40% hydroxypropyl-cyclodextrin (HPCD)) in a total volume of 1 mL/kg. Peripheral blood samples were collected at 5 h post-dose. Blood was collected via indwelling catheter. A complete cell count (CBC), including lymphocyte count, was obtained using a CELL-DYN® 3700 (Abbott Laboratories, Abbott Park, Ill.) instrument. Results are presented in FIG. 12, in which peripheral blood lymphocyte (PBL) count is shown for the 5 hour group.
Similarly, rats were given a 1 mg/kg intravenous dose of the second enantiomer isolated after resolution of compound 12 by HPLC (retention time: 18 min per the conditions reported in Example 1.3), or dosing vehicle (40% hydroxypropyl-cyclodextrin (HPCD)) in a total volume of 1 mL/kg. […]

Data set [10] concerns collagen-induced arthritis. The experiment in a line: Collagen-induced arthritis assay. As to conditions: rat, 0.3, 1 and 3 mg/kg p.o. q.d. day 0 through day 16, FIG. 14. In kind it is in vivo, Female Lewis rats. How it is done:
Female Lewis rats were used in this study. Acclimated animals were anesthetized with isoflurane and given the first collagen injection (day 0). On day 6, they were anesthetized again for the second collagen injection. Collagen was prepared by making a 4 mg/mL solution in 0.01 N acetic acid. Equal volumes of collagen and incomplete Freund's adjuvant were emulsified by hand mixing until a bead of this material held its form when placed in water. Each animal received 300 μL of the mixture each time, spread over 3 subcutaneous sites on the back.
Treatment (p.o., q.d., 5 mL/kg dosing volume) began on day 0 and continued through day 16 with vehicle or compounds given at 24 h intervals. Rats were weighed on days 0, 3, 6 and 9 through 17 and caliper measurements of the ankles taken on days 9 through 17.
The second enantiomer isolated after resolution of compound 12 by HPLC (retention time: 18 min per the conditions reported in Example 1.3), was dosed at 0.3, 1 and 3 mg/kg.

T1 sequence (P21453 whole entry): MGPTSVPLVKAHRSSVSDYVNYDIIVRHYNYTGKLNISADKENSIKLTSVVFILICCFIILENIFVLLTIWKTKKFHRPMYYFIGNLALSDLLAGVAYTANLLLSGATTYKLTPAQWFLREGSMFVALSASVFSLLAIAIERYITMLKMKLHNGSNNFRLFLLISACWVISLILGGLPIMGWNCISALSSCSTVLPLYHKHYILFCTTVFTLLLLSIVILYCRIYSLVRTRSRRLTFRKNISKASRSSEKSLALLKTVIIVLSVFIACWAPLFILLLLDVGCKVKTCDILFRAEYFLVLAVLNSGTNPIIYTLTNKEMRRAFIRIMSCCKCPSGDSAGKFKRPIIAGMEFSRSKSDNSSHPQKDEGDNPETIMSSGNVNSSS

Consider `N#Cc1cc(COc2ccc3c(c2)cc2n3CCC2CC(=O)O)cc(OC(F)(F)F)c1` (centres unmarked) [Compound 2, 2-(7-(3-cyano-5-(trifluoromethoxy)benzyloxy)-2,3-dihydro-1H-pyrrolo[1,2-a]indol-1-yl)acetic acid], for which the “peripheral blood lymphocyte (PBL) lowering compared to vehicle” value in data set [1] is “exhibited activity for inducing PBL lowering (lymphopenia)”.

As a reminder, the EC50 is the concentration giving half of the maximal effect. For `CC(C)Cc1ccc(COc2ccc3c(c2)cc2n3CCC2CC(=O)O)cc1C(F)(F)F` (centres unmarked) [Compound 4, 2-(7-(4-isobutyl-3-(trifluoromethyl)benzyloxy)-2,3-dihydro-1H-pyrrolo[1,2-a]indol-1-yl)acetic acid], the EC50 on human S1P1 receptor came out at 321 pM.

On to `CC(C)Oc1ccc(COc2ccc3c(c2)cc2n3CCC2CC(=O)O)cc1C#N` (centres unmarked) [Compound 6, 2-(7-(3-cyano-4-isopropoxybenzyloxy)-2,3-dihydro-1H-pyrrolo[1,2-a]indol-1-yl)acetic acid], for which, on human S1P1 receptor, the EC50 worked out at 239 pM.

Turning to `O=C(O)CC1CCn2c1c(I)c1cc(OCc3ccc(C4CCCC4)c(C(F)(F)F)c3)ccc12` (centres unmarked) [Compound 10, 2-(7-(4-cyclopentyl-3-(trifluoromethyl)benzyloxy)-9-iodo-2,3-dihydro-1H-pyrrolo[1,2-a]indol-1-yl)acetic acid], the EC50 at human S1P1 receptor stood at 11 pM. On the same count and under the same terms, then `O=C(O)CC1CCn2c1c(C1CCC1)c1cc(OCc3ccc(C4CCCC4)c(C(F)(F)F)c3)ccc12` (centres unmarked) [Compound 11, 2-(9-cyclobutyl-7-(4-cyclopentyl-3-(trifluoromethyl)benzyloxy)-2,3-dihydro-1H-pyrrolo[1,2-a]indol-1-yl)acetic acid], with 5200 pM; and `O=C(O)CC1CCn2c1nc1cc(OCc3ccc(C4CCCC4)c(C(F)(F)F)c3)ccc12` (centres unmarked) [Compound 14, 2-(6-(4-cyclopentyl-3-(trifluoromethyl)benzyloxy)-2,3-dihydro-1H-benzo[d]pyrrolo[1,2-a]imidazol-3-yl)acetic acid], with 6300 pM. For `CCCCCCCCc1ccc(CCC(N)(CO)CO)cc1` [FTY720], the ovariectomy-induced osteoporosis entry in data set [2] is given as “relieved ovariectomy-induced osteoporosis”. Moreover, the “induction of lymphopenia (peripheral lymphocyte lowering)” value in the data set with peripheral lymphocytes was “rapidly and reversibly induce lymphopenia”. Also, the nociceptive behavior result in data set [3] is on record as “reduce the nociceptive behavior”. Besides, in [4], the ocular infiltrates result is listed as “rapidly reduced ocular infiltrates”. Besides, the “MRI lesions and clinical disease activity” value with multiple sclerosis was “reduce the number of lesions detected by magnetic resonance imaging (MRI) and clinical disease activity”. For the same compound, in data set [5], the “development of EAMG” value was “completely prevented the development of experimental autoimmune myasthenia gravis”. In addition, the VEGF-induced vascular permeability entry in data set [6] is recorded as “potently blocked VEGF-induced vascular permeability”. Moreover, the “adverse event in clinical trials” value in data set [7] was “transient asymptomatic bradycardia”. The “initiation of contact hypersensitivity” value in data set [8] was “impair initiation of murine contact hypersensitivity”. Consider `O=C(O)CC1CCn2c1cc1cc(OCc3ccc(C4CCCC4)c(C(F)(F)F)c3)ccc12` (stereo not drawn) [first enantiomer isolated after resolution of compound 12 by HPLC, 2-(7-(4-cyclopentyl-3-(trifluoromethyl)benzyloxy)-2,3-dihydro-1H-pyrrolo[1,2-a]indol-1-yl)acetic acid], for which, in data set [9], the “peripheral blood lymphocyte (PBL) lowering compared to vehicle” value is given as “exhibited activity for inducing PBL lowering (lymphopenia)”. For the compound `O=C(O)CC1CCn2c1cc1cc(OCc3ccc(C4CCCC4)c(C(F)(F)F)c3)ccc12` (stereo not drawn) [second enantiomer isolated after resolution of compound 12 by HPLC, 2-(7-(4-cyclopentyl-3-(trifluoromethyl)benzyloxy)-2,3-dihydro-1H-pyrrolo[1,2-a]indol-1-yl)acetic acid], the “reduction of mean ankle diameter compared to vehicle” value in data set [10] is given as “exhibited activity for reducing mean ankle diameter”.
